According to patent US12558357B2, “Tetrahydroquinazoline derivatives as selective cytotoxic agents” (Merck Sharp & Dohme LLC, priority 2020, dated 2026):
pEC50: −log10 of the molar value.

System: PBMCs infected with VSV-G pseudotyped HIV virus (VSV-G/pNLG1-P2A-ΔEnv)
Test: cells
Assay type: cell-based, human
Conditions: Homo sapiens, PBMC, read-out: EC50 (HIV-TACK cell kill activity)

In order of rising pEC50:
1. O=C1Nc2cc(Cn3ncccc3=O)ccc2[C@@](C#CC2CC2)(C(F)(F)F)N1 [Example 23, (S)-4-(cyclopropylethynyl)-7-((6-oxopyridazin-1(6H)-yl)methyl)-4-(trifluoromethyl)-3,4-dihydroquinazolin-2(1H)-one]  6.60
2. CC(C)CC#CC1(C(F)(F)F)NC(=O)Nc2cc(Cn3cnccc3=O)ccc21 (racemic) [Example 79, (S)-4-(4-methylpent-1-yn-1-yl)-7-((6-oxopyrimidin-1(6H)-yl)methyl)-4-(trifluoromethyl)-3,4-dihydroquinazolin-2(1H)-one AND (R)-4-(4-methylpent-1-yn-1-yl)-7-((6-oxopyrimidin-1(6H)-yl)methyl)-4-(trifluoromethyl)-3,4-dihydroquinazolin-2(1H)-one]  6.64
3. Nc1ccnn(Cc2cc3c(cc2F)[C@@](C#CC2CC2)(C(F)(F)F)NC(=O)N3)c1=O [Example 26, (S)-7-((5-amino-6-oxopyridazin-1(6H)-yl)methyl)-4-(cyclopropylethynyl)-6-fluoro-4-(trifluoromethyl)-3,4-dihydroquinazolin-2(1H)-one]  6.65
4. N#Cc1cc2c(cc1Cn1cnccc1=O)NC(=O)NC2(C#CC1CC1)C(F)(F)F (single isomer, unassigned) [Example 75]  6.66
5. O=C1Nc2cc(Cn3cnc(C(F)(F)F)cc3=O)ccc2[C@@](C#CC2CC2)(C(F)(F)F)N1 [Example 25, (S)-4-(cyclopropylethynyl)-7-((6-oxo-4-(trifluoromethyl)pyrimidin-1(6H)-yl)methyl)-4-(trifluoromethyl)-3,4-dihydroquinazolin-2(1H)-one]  6.71
6. O=C1Nc2cc(Cn3cnccc3=O)ccc2[C@@](C#CC2CC2)(C(F)(F)F)N1 [Example 21, (S)-4-(cyclopropylethynyl)-7-((6-oxopyrimidin-1(6H)-yl)methyl)-4-(trifluoromethyl)-3,4-dihydroquinazolin-2(1H)-one]  6.74
7. Nc1cc(=O)n(Cc2ccc3c(c2)NC(=O)N[C@]3(C#CC2CC2)C(F)(F)F)cn1 [Example 28, (S)-7-((4-amino-6-oxopyrimidin-1(6H)-yl)methyl)-4-(cyclopropylethynyl)-4-(trifluoromethyl)-3,4-dihydroquinazolin-2(1H)-one]  6.77
8. O=C1Nc2cc(Cn3nc(Cl)ccc3=O)ccc2[C@@](C#CC2CC2)(C(F)(F)F)N1 [Example 29, (S)-7-((3-chloro-6-oxopyridazin-1(6H)-yl)methyl)-4-(cyclopropylethynyl)-4-(trifluoromethyl)-3,4-dihydroquinazolin-2(1H)-one]  6.79
9. Cc1nc(N)c(=O)n(Cc2ccc3c(c2)NC(=O)N[C@]3(C#CC2CC2)C(F)(F)F)c1C [Example 60, (S)-7-((3-amino-5,6-dimethyl-2-oxopyrazin-1(2H)-yl)methyl)-4-(cyclopropylethynyl)-4-(trifluoromethyl)-3,4-dihydroquinazolin-2(1H)-one]  6.81
10. Nc1c(C(F)(F)F)ncn(Cc2ccc3c(c2)NC(=O)N[C@]3(C#CC2CC2)C(F)(F)F)c1=O [Example 33, (S)-7-((5-amino-6-oxo-4-(trifluoromethyl)pyrimidin-1(6H)-yl)methyl)-4-(cyclopropylethynyl)-4-(trifluoromethyl)-3,4-dihydroquinazolin-2(1H)-one]  6.90
11. N#Cc1ncn(Cc2ccc3c(c2)NC(=O)N[C@]3(C#CC2CC2)C(F)(F)F)c(=O)c1N [Example 57, (S)-5-amino-1-((4-(cyclopropylethynyl)-2-oxo-4-(trifluoromethyl)-1,2,3,4-tetrahydroquinazolin-7-yl)methyl)-6-oxo-1,6-dihydropyrimidine-4-carbonitrile]  6.90
12. O=C1Nc2cc(Cn3cnc(Cl)cc3=O)ccc2[C@@](C#CC2CC2)(C(F)(F)F)N1 [Example 35, (S)-7-((4-chloro-6-oxopyrimidin-1(6H)-yl)methyl)-4-(cyclopropylethynyl)-4-(trifluoromethyl)-3,4-dihydroquinazolin-2(1H)-one]  7.00
13. CN1C(=O)Nc2cc(Cn3ccnc(N)c3=O)ccc2[C@@]1(C#CC1CC1)C(F)(F)F [Example 46, (S)-7-((3-amino-2-oxopyrazin-1(2H)-yl)methyl)-4-(cyclopropylethynyl)-3-methyl-4-(trifluoromethyl)-3,4-dihydroquinazolin-2(1H)-one]  7.00
14. Nc1cncn(Cc2ccc3c(c2)NC(=O)N[C@]3(C#CC2CC2)C(F)(F)F)c1=O [Example 37, (S)-1-((4-(cyclopropylethynyl)-2-oxo-4-(trifluoromethyl)-1,2,3,4-tetrahydroquinazolin-7-yl)methyl)-6-oxo-1,6-dihydropyrimidin-5-aminium 2,2,2-trifluoroacetate]  7.05
15. CC(C)C#CC1(C(F)(F)F)NC(=O)Nc2cc(Cn3cnccc3=O)ccc21 (racemic) [Example 77, (S)-4-(3-methylbut-1-yn-1-yl)-7-((6-oxopyrimidin-1(6H)-yl)methyl)-4-(trifluoromethyl)-3,4-dihydroquinazolin-2(1H)-one AND (R)-4-(3-methylbut-1-yn-1-yl)-7-((6-oxopyrimidin-1(6H)-yl)methyl)-4-(trifluoromethyl)-3,4-dihydroquinazolin-2(1H)-one]  7.06
16. Nc1c(Cl)ncn(Cc2ccc3c(c2)NC(=O)N[C@]3(C#CC2CC2)C(F)(F)F)c1=O [Example 40, (S)-7-((5-amino-4-chloro-6-oxopyrimidin-1(6H)-yl)methyl)-4-(cyclopropylethynyl)-4-(trifluoromethyl)-3,4-dihydroquinazolin-2(1H)-one]  7.19
17. Nc1cc(=O)n(Cc2cc3c(cc2F)[C@@](C#CC2CC2)(C(F)(F)F)NC(=O)N3)cn1 [Example 41, (S)-7-((4-amino-6-oxopyrimidin-1(6H)-yl)methyl)-4-(cyclopropylethynyl)-6-fluoro-4-(trifluoromethyl)-3,4-dihydroquinazolin-2(1H)-one]  7.22
18. Cc1ccc(=O)n(Cc2cc3c(cc2F)[C@@](C#CC2CC2)(C(C)(F)F)NC(=O)N3)n1 [Example 51, (S)-4-(cyclopropylethynyl)-4-(1,1-difluoroethyl)-6-fluoro-7-((3-methyl-6-oxopyridazin-1(6H)-yl)methyl)-3,4-dihydroquinazolin-2(1H)-one]  7.27
19. O=C1Nc2cc(Cn3cnc(Cl)cc3=O)c(F)cc2[C@@](C#CC2CC2)(C(F)(F)F)N1 [Example 44, (S)-7-((4-chloro-6-oxopyrimidin-1(6H)-yl)methyl)-4-(cyclopropylethynyl)-6-fluoro-4-(trifluoromethyl)-3,4-dihydroquinazolin-2(1H)-one]  7.33
20. Nc1c(Cl)ncn(Cc2cc3c(cc2F)[C@@](C#CC2CC2)(C(F)(F)F)NC(=O)N3)c1=O [Example 8, (S)-7-((5-amino-4-chloro-6-oxopyrimidin-1(6H)-yl)methyl)-4-(cyclopropylethynyl)-6-fluoro-4-(trifluoromethyl)-3,4-dihydroquinazolin-2(1H)-one]  7.34
21. COCc1cc(=O)n(Cc2cc3c(cc2F)[C@@](C#CC2CC2)(C(F)(F)F)NC(=O)N3)cn1 [Example 7, (S)-4-(cyclopropylethynyl)-6-fluoro-7-((4-(methoxymethyl)-6-oxopyrimidin-1(6H)-yl)methyl)-4-(trifluoromethyl)-3,4-dihydroquinazolin-2(1H)-one]  7.36
22. COCc1cc(=O)n(Cc2cc3c(cc2Cl)[C@@](C#CC2CC2)(C(F)(F)F)NC(=O)N3)cn1 [Example 61, (S)-6-chloro-4-(cyclopropylethynyl)-7-((4-(methoxymethyl)-6-oxopyrimidin-1(6H)-yl)methyl)-4-(trifluoromethyl)-3,4-dihydroquinazolin-2(1H)-one]  7.42
23. Nc1nc(Br)cn(Cc2cc3c(cc2F)[C@@](C#CC2CC2)(C(F)(F)F)NC(=O)N3)c1=O [Example 16, (S)-7-((3-amino-5-bromo-2-oxopyrazin-1(2H)-yl)methyl)-4-(cyclopropylethynyl)-6-fluoro-4-(trifluoromethyl)-3,4-dihydroquinazolin-2(1H)-one]  7.42
24. Nc1c(Cl)ncn(Cc2cc3c(cc2Cl)[C@@](C#CC2CC2)(C(F)(F)F)NC(=O)N3)c1=O [Example 11, (S)-7-((5-amino-4-chloro-6-oxopyrimidin-1(6H)-yl)methyl)-6-chloro-4-(cyclopropylethynyl)-4-(trifluoromethyl)-3,4-dihydroquinazolin-2(1H)-one]  7.48
25. CC(F)(F)[C@@]1(C#CC2CC2)NC(=O)Nc2cc(Cn3ncccc3=O)c(F)cc21 [Example 50, (S)-4-(cyclopropylethynyl)-4-(1,1-difluoroethyl)-6-fluoro-7-((6-oxopyridazin-1(6H)-yl)methyl)-3,4-dihydroquinazolin-2(1H)-one]  7.49
26. COc1ccn(Cc2cc3c(cc2F)[C@@](C#CC2CC2)(C(C)(F)F)NC(=O)N3)c(=O)c1 [Example 84, (S)-4-(cyclopropylethynyl)-4-(1,1-difluoroethyl)-6-fluoro-7-((4-methoxy-2-oxopyridin-1(2H)-yl)methyl)-3,4-dihydroquinazolin-2(1H)-one]  7.52
27. Nc1nccn(Cc2ccc3c(c2)NC(=O)N[C@]3(C#CC2CC2)C(F)(F)F)c1=O [Example 9, (S)-7-((3-amino-2-oxopyrazin-1(2H)-yl)methyl)-4-(cyclopropylethynyl)-4-(trifluoromethyl)-3,4-dihydroquinazolin-2(1H)-one]  7.52
28. CC(F)(F)[C@@]1(C#CC2CC2)NC(=O)Nc2cc(Cn3ccnc(N)c3=O)c(F)cc21 [Example 67, (S)-7-((3-amino-2-oxopyrazin-1(2H)-yl)methyl)-4-(cyclopropylethynyl)-4-(1,1-difluoroethyl)-6-fluoro-3,4-dihydroquinazolin-2(1H)-one]  7.92

Same assay, conditions: read-out: EC50 (HIV-TACK cell kill activity); 2,2,2-trifluoroacetate

With Nc1cc(=O)n(Cc2ccc3c(c2)NC(=O)N[C@]3(C#CC2CC2)C(F)(F)F)cn1 [Example 32, (S)-1-((4-(cyclopropylethynyl)-2-oxo-4-(trifluoromethyl)-1,2,3,4-tetrahydroquinazolin-7-yl)methyl)-6-oxo-1,6-dihydropyrimidin-4-aminium 2,2,2-trifluoroacetate] the pEC50 was 6.85.
